From publication PMC10342010, “Djakonoviosides A, A1, A2, B1–B4 — Triterpene Monosulfated Tetra- and Pentaosides from the Sea Cucumber Cucumaria djakonovi: The First Finding of a Hemiketal Fragment in the Aglycones; Activity against Human Breast Cancer Cell Lines” (International Journal of Molecular Sciences, 2023)
Read-outs that look alike come from different tables or passages of the source.

Key:
MCF-7 cells = test: Cytotoxic activity (MTT assay); format: cell-based, human; conditions: MCF-7, MTT, 24 h; read-out: Cytotoxicity, IC50 MCF-7
Procedure: (§1) After incubation, the glycosides with medium were replaced by 100 μL of fresh medium. Then, 10 μL of MTT (3-(4,5-dimethylthiazol-2-yl)-2,5-diphenyltetrazolium bromide) (Sigma-Aldrich, St. Louis, MO, USA) stock solution (5 mg/mL) was added to each well, followed by incubation of the microplate for 4 h. After this procedure, 100 μL of SDS-HCl solution (1 g SDS/10 mL d-H2O/17 μ[…] HCl) was added to each well and incubated for 18 h. The absorbance of the converted dye formazan was determined with a Multiskan FC microplate photometer (Thermo Fisher Scientific, Waltham, MA, USA) at 570 nm.

HEK293 cells = test: Cytotoxic activity (MTT assay); format: cell-based, human; conditions: HEK293, MTT, 24 h; read-out: Cytotoxicity, IC50 HEK293
Procedure: as §1

HL-60 cells = test: Cytotoxic activity (MTS assay); format: cell-based, human; conditions: HL-60, MTS, 24 h; read-out: Cytotoxicity, IC50 HL-60
Procedure: Then, the cells were incubated with 10 µL MTS ([3-(4,5-dimethylthiazol-2-yl)-5-(3-carboxymethoxyphenyl)-2-(4-sulfophenyl)-2H-tetrazolium) for 4 h, and the absorbance in each well was determined at 490/630 nm with a PHERA star FS plate reader (BMG Labtech, Ortenberg, Germany). The experiments were conducted in triplicate.

human erythrocytes = test: Hemolytic activity; format: cell-based; conditions: 1 h incubation at 37 °C, 50% hemolysis
Procedure: Erythrocytes were obtained from human blood (AB(IV) Rh+) by centrifugation with phosphate-buffered saline (PBS) (pH 7.4) at 4 °C for 5 min by 450 g on a LABOFUGE 400R centrifuge (Heraeus, Hanau, Germany) three times. Then, the erythrocytes residue was resuspended in ice cold phosphate saline buffer (pH 7.4) to a final optical density of 1.5 at 700 nm and kept on ice. For the hemolytic assay, 180 µL of erythrocyte suspension was mixed with 20 µL of test compound solution, as well as control, chitonoidoside L [33], in V-bottom 96-well plates. After 1 h of incubation at 37 °C, the plates were exposed to centrifugation for 10 min at 900 g in a laboratory LMC-3000 centrifuge (Biosan, Riga, Latvia). Then, 100 µL of supernatant was carefully decanted and transferred into new flat plates. The values of the lysis of the erythrocytes were found by measuring the concentration of hemoglobin in the supernatant with a Multiskan FC microplate photometer (Thermo Fisher Scientific, Waltham, MA, USA); λ = 570 nm. […] All the experiments were carried out in triple repetitions; p < 0.01.

T-47D cells = test: Cytotoxic activity (MTT assay); format: cell-based, human; conditions: T-47D, MTT, 24 h; read-out: Cytotoxicity, IC50 T-47D
Procedure: as §1

MDA-MB-231 cells [1] = test: Cytotoxic activity (MTT assay); format: cell-based, human; conditions: for IC50: MDA-MB-231, MTT, 24 h, read-out: Cytotoxicity, IC50 MDA-MB-231
Procedure: as §1

MDA-MB-231 cells [2] = test: Wound scratch migration assay; format: cell-based, human; conditions: MDA-MB-231, 0.05 µM, 24 h
Text: To analyze the influence of the tested compounds on tumor cell migration, MDA-MB-231 cells attached to the plate’s plastic bottom were separated by a silicone insert from special migration plates (Culture-insert 2 Well 24, ibiTreat); then, the insert was removed, leaving a gap of 500 ± 50 μm (according to the manufacturer’s data) between the cells. The cells were washed twice by PBS to remove cell debris and floating cells and loaded with a fluorescent probe, a (5,6)-carboxyfluorescein succinimidyl ester (CFDA SE) dye (LumiTrace CFDA SE kit, Lumiprobe, Moscow, Russia). The initial solution of CFDA SE at a concentration of 5 mM in DMSO was dissolved in PBS to prepare a 10 μM solution and was added to the cells for 5 min at 37 °C; then, the cells were washed twice with PBS, and fresh culture medium was added. After that, the cells were treated with various concentrations of glycosides and left for 8 and 24 h. Cells treated with culture medium only were used as control. Cell migration into the wound area was then observed under a fluorescence microscope (MIB-2-FL, LOMO, Saint Peterburg, Russia) with an objective ×10 magnification.

MDA-MB-231 cells [3] = test: Colony formation (clonogenic) assay; format: cell-based, human; conditions: MDA-MB-231, concentration 0.5 μM
Procedure: The influence of glycosides on the proliferation of MDA-MB-231 cells was analyzed by clonogenic assay. Briefly, MDA-MB-231 cells were cultured on 6-well plates at a density of 1 × 10^3 cells per well in control media (MEM media, 10% FBS, 10,000 U/mL of penicillin and 10,000 μg/mL of streptomycin) or in media supplemented with different concentrations of glycosides. Cells were incubated for one week at 37 °C with 5% CO2 until the cells in the control plates formed colonies that were visible to the eye and were of a substantial size (at least 50 cells per colony). For fixation and staining, the media were removed and the cells were washed twice with PBS. The colonies were fixed with methanol for 25 min, then washed with PBS and stained with 0.5% crystal violet solution for 25 min at room temperature. The plates were then washed with water and air dried.

Structure (SMILES)	IC50 (MCF-7 cells) [µM]	IC50 (HEK293 cells) [µM]	IC50 (HL-60 cells) [µM]	ED50, Erythrocytes (human erythrocytes) [µM]	IC50 (T-47D cells) [µM]	IC50 (MDA-MB-231 cells [1]) [µM]	Inhibition of migration in comparison with control (MDA-MB-231 cells [2]) [%]	Inhibition of formation and growth of colonies, % of the control (MDA-MB-231 cells [3]) [%]	EC50 (MDA-MB-231 cells [1]; MDA-MB-231, 24 h, read-out: Cytotoxic effect EC50 on MDA-MB-231, 24 h) [µM]	EC50 (MDA-MB-231 cells [1]; MDA-MB-231, 48 h, read-out: Cytotoxic effect EC50 on MDA-MB-231, 48 h) [µM]	EC50 (MDA-MB-231 cells [1]; MDA-MB-231, 72 h, read-out: Cytotoxic effect EC50 on MDA-MB-231, 72 h) [µM]
CO[C@@H]1[C@@H](O)[C@H](O[C@@H]2[C@@H](O)[C@H](O[C@H]3[C@H](O)[C@@H](O[C@H]4OC[C@H](O)[C@H](O)[C@@H]4O)[C@H](O[C@H]4[C@H](O[C@H]5CC[C@]6(C)[C@@H]7CC[C@]89C(=O)O[C@@](C)(C[C@@H](O)CC(C)C)[C@H]8[C@@H](OC(C)=O)C[C@@]9(C)C7=CC[C@H]6C5(C)C)OC[C@@H](OS(=O)(=O)O)[C@@H]4O)O[C@@H]3C)OC[C@H]2O)O[C@H](CO)[C@H]1O [frondoside D]	23.2 ± 0.92	9.45 ± 0.78	18.08 ± 0.08	9.22 ± 0.10	11.8 ± 1.1	12 ± 1.28	–	–	–	–	–
COC1C(O)C(CO)OC(OC2C(O)COC(OC3C(C)OC(OC4C(OC5CCC6(C)C7CCC89C(=O)OC(C)(CC(=O)CC(C)C)C8C(OC(C)=O)CC9(C)C7=CCC6C5(C)C)OCC(OS(=O)(=O)[O-])C4O)C(O)C3O)C2O)C1O.[Na+] (centres unmarked) [okhotoside A1-1]	8.34 ± 0.12	3.17 ± 0.7	2.52 ± 0.26	0.75 ± 0.09	8.46 ± 0.65	2.34 ± 0.53	74.76 ± 4.41	70.76 ± 0.13	2.34	2.05	1.73
